Counter-ions that a name gives are not always drawn.
Columns and labels:
[1] = biological target: T1, human KDR enzyme (Homo sapiens, UniProt P35968); assay: KDR substrate phosphorylation assay (scintillation, 96-well plate); type: biochemical
T1 construct: The cytoplasmic domain of the human KDR enzyme was cloned in the form of a GST fusion; GST; made in house; host or cells: SF21 insect cells (baculovirus, pFastBac)
Summary of the method: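 GST-fused cytoplasmic domain of human KDR (Sf21-expressed, ~60% pure; 100 ng) mixed with compound at 4 °C in MOPS buffer pH 7.2 with Mg2+/Mn2+, DTT, EGTA, vanadate, NaF. Started with 2 μg GST-PLCγ SH2-SH3, γ33P-ATP and cold ATP (2 μM in starting solution); 1 h, 37 °C, EDTA stop. Result: % inhibition vs no-compound control.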

[2] = biological target: T2, Aurora2 (Homo sapiens, UniProt O14965); assay: Aurora2 enzyme assay, NuMA substrate phosphorylation (Flashplate); type: biochemical; conditions: read-out: IC 50 Aurora2
T2 construct: Aurora 2: whole recombinant protein comprising an N-terminal histidine tail; His tag (histidine tail) (N); made in house; host or cells: E. coli
T2 sequence (O14965 1-403): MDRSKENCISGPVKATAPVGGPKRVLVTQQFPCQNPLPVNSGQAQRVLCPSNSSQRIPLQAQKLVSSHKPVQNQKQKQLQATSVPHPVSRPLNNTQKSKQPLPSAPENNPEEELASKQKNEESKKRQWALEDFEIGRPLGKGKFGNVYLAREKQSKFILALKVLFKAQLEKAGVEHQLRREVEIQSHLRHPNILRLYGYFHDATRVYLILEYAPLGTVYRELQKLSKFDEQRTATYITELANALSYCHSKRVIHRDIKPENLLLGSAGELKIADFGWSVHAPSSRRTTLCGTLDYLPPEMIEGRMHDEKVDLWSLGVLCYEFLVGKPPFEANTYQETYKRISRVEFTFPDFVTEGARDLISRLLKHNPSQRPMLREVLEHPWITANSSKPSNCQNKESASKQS
Summary of the method: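 Recombinant full-length N-His Aurora2 (E. coli), 10 nM, phosphorylates 500 nM His-NuMA fragment with 1 µM ATP plus [33P]ATP in Tris/HCl pH 7.5, NaCl, MgCl2, DTT, 37 °C, 30 min, on Ni-chelate Flashplates. Incorporated 33P counted by scintillation; percent inhibition versus enzyme control after background subtraction.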

T1 sequence (P35968 786-1356 limits assumed): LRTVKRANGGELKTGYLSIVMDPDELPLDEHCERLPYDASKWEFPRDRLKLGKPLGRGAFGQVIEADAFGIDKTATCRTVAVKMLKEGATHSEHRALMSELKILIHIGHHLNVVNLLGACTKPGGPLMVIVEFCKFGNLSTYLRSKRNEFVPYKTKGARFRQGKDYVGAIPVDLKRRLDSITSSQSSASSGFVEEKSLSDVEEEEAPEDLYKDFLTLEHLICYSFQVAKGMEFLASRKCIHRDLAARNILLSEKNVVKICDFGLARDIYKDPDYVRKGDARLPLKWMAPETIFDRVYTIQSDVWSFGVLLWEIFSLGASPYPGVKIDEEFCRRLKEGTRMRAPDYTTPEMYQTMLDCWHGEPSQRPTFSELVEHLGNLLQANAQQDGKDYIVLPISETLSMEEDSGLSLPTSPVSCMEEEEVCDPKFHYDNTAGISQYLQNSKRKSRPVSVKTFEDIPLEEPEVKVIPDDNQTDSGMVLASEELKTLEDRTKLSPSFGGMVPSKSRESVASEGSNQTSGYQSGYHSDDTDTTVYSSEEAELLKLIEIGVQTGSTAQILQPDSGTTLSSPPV

SMILES	IC50 [1]	IC50 [2]	melting point
O=C(Nc1n[nH]c2cc(-c3ccc(NS(=O)(=O)c4cccc(Cl)c4Cl)cc3)ccc12)c1ccsc1 [Example 3, 3-Thiophenecarboxylic acid {6-[4-(2,3dichlorobenzenesulfonylamino)phenyl]-1H-indazol-3-yl}amide]	864 nM	133 nM	196 °C
Nc1n[nH]c2c(F)c(-c3ccc(NS(=O)(=O)c4cccc(Cl)c4Cl)cc3)ccc12 [Example 8, 1-[4-(3-Amino-1H-indazol-6-yl)-7-fluorophenyl]-2,3-dichlorobenzenesulfonamide hydrochloride]	6590 nM	87 nM	
O=C(Nc1n[nH]c2c(F)c(-c3ccc(NS(=O)(=O)c4cccc(Cl)c4Cl)cc3)ccc12)c1ccsc1 [Example 5, 3-Thiophenecarboxylic acid {6-[4-(2,3-dichlorobenzenesulfonylamino)-7-fluorophenyl]-1H-indazol-3-yl}amide]	1870 nM	37 nM	
Nc1n[nH]c2cc(-c3ccc(NS(=O)(=O)c4cccc(Cl)c4Cl)cc3)ccc12 [Example 2, 1-[4-(3-Amino-1H-indazol-6-yl)phenyl]-2,3-dichlorobenzenesulfonamide hydrochloride]		200 nM	
